Laboratory results: patent publication US9750248B2, “Synergistic fungicidal compositions” (Dow AgroSciences LLC, priority 2012, dated 2017)

Experiments:
Format in all cases: in vivo
[1] = tested on: Puccinia recondita-tritici (PUCCRT); test: Control of wheat brown rust, one-day protective (1DP) application, greenhouse; conditions: for A % DC: component A alone; for B % DC: component B alone
Experimental: (§1) For the mixture studies with compound of Formula I: Treatments consisted of fungicides, including a compound of Formula I, tebuconazole, propiconazole, metconazole, and cyproconazole, applied either individually or as two-way mixtures with a compound of Formula I. Technical grades of materials were dissolved in acetone to make stock solutions which were used to perform three-fold dilutions in acetone for each individual fungicide component or for the two-way mixtures. Desired fungicide rates were obtained after mixing dilutions with nine volumes of water containing 110 parts per million (ppm) Triton X-100. The fungicide solutions (10 milliliters (mL)) were applied onto six pots of plants using an automated booth sprayer, which utilized two 6218-1/4 JAUPM spray nozzles operating at 20 pounds per square inch (psi) set at opposing angles to cover both leaf surfaces. All sprayed plants were allowed to air dry prior to further handling. Control plants were sprayed in the same manner with a solvent blank.
(§2) For the one-day protectant experiments, the plants were inoculated with an aqueous spore suspension of the pathogen of interest (either PUCCRT or SEPTTR) and then placed in a dew room from 1-3 days to allow for infection to occur. The plants were then placed in the greenhouse for symptom development to occur. In the case of PUCCRT, symptoms typically appeared in 7-10 days while for SEPTTR symptoms typically appeared in 25-30 days.
(§3) When disease severity reached 50-100% on the control plants, infection levels were assessed on treated plants visually and scored on a scale of 0 to 100 percent. The percentage of disease control was then calculated using the ratio of disease on treated plants relative to control plants.
(§4) The Colby equation was used to determine the fungicidal effects expected from the mixtures. (See Colby, S. R. Calculation of the synergistic and antagonistic response of herbicide combinations, Weeds 1967, 15, 20-22.). More specifically, in Tables 1-5, Colby's equation was used to calculate the expected activity of mixtures containing two active ingredients, A and B: Expected=A+B−(A×B/100), wherein

[2] = tested on: Puccinia recondita-tritici (PUCCRT); test: Control of wheat brown rust, three-day curative (3DC) application, greenhouse; conditions: for A % DC: component A alone; for B % DC: component B alone
Experimental: as §1
(§5) For the three-day curative experiments, plants were inoculated with an aqueous spore suspension of the pathogen of interest (either PUCCRT or SEPTTR) and then placed in a dew room from 1-3 days to allow for infection to occur. The plants were removed from the dew room, allowed to dry for approximately one hour (h), sprayed with the test materials formulated as described above, and then placed in the greenhouse for symptom development to occur as described previously.
as §3, §4

[3] = tested on: Septoria tritici (SEPTTR); test: Control of wheat leaf blotch, one-day protective (1DP) application, greenhouse; conditions: for A % DC: component A alone; for B % DC: component B alone
Experimental: as §1, §2, §3, §4

[4] = tested on: Septoria tritici (SEPTTR); test: Control of wheat leaf blotch, three-day curative (3DC) application, greenhouse; conditions: for A % DC: component A alone; for B % DC: component B alone
Experimental: as §1, §5, §3, §4

[5] = tested on: Puccinia recondita-tritici (PUCCRT); test: Control of wheat brown rust in a field research trial; conditions: for B % DC: component B alone
Experimental: as §4
The field trial was conducted at the Dow AgroSciences field station located at Mogi Mirim, Brazil. There were four replicate plots per treatment, with each plot 2×3.5 meters in length and width. The plots were sprayed with the treatments twice, once at growth stage BBCH 33 and again at growth stage BBCH 61-65. Treatments were applied with spray volumes of 150 liters/hectare (L/ha) with an XR flat fan nozzle. Disease development relied on natural inoculum (no artificial infestation). Ten plants per plot were used for each disease severity assessment, with all leaves per plant used for the assessment.

| SMILES | B % DC ([1]; 0.1 ppm) | B % DC ([1]; 0.4 ppm) | B % DC ([1]; 1.6 ppm) | B % DC ([1]; 6.3 ppm) | B % DC ([2]; 0.4 ppm) | B % DC ([3]; 0.4 ppm) | B % DC ([3]; 1.6 ppm) | B % DC ([4]; 0.1 ppm) | B % DC ([3]; 0.1 ppm) | B % DC ([2]; 1.6 ppm) | other results |
| --- | --- | --- | --- | --- | --- | --- | --- | --- | --- | --- | --- |
| COc1ccnc(C(=O)N[C@H]2COC(=O)[C@H](Cc3ccccc3)[C@@H](OC(=O)C(C)C)[C@H](C)OC2=O)c1OCOC(=O)C(C)C [Cmpd I, (3S,6S,7R,8R)-8-benzyl-3-(3-((isobutyryloxy)methoxy)-4-methoxypicolinamido)-6-methyl-4,9-dioxo-1,5-dioxonan-7-yl isobutyrate] |  |  |  |  |  |  |  |  |  |  | A % DC ([1]; 0.4 ppm): 0%; A % DC ([1]; 1.6 ppm): 19.6%; A % DC ([1]; 6.3 ppm): 85.5%; A % DC ([2]; 0.1 ppm): 0%; A % DC ([2]; 0.4 ppm): 0%; A % DC ([2]; 1.6 ppm): 0%; A % DC ([2]; 6.3 ppm): 0%; A % DC ([3]; 0.1 ppm): 7%; A % DC ([3]; 0.4 ppm): 19%; A % DC ([3]; 1.6 ppm): 53%; A % DC ([4]; 0.1 ppm): 45.3%; A % DC ([4]; 1.6 ppm): 55.2%; A % DC ([4]; 6.3 ppm): 70.1%; A % DC ([5]; component A alone, 150 g ai/ha): 34.1% |
| CC(C1CC1)C(O)(Cn1cncn1)c1ccc(Cl)cc1 (stereo not drawn) [Cyproconazole, α-(4-chlorophenyl)-α-(1-cyclopropylethyl)-1H-1,2,4-triazole-1-ethanol] | 0% | 0% | 27% | 57% | 82% | 9% | 19% | 44.0% |  |  | B % DC ([5]; 40 g ai/ha): 38% |
| CC1(C)CCC(Cc2ccc(Cl)cc2)C1(O)Cn1cncn1 (centres unmarked) [Metconazole, 5-[(4-chlorophenyl)methyl]-2,2-dimethyl-1-(1H-1,2,4-triazol-1-ylmethyl)cyclopentanol] |  | 0% | 8% | 87% | 4% |  |  |  | 9% |  |  |
| CCCC1COC(Cn2cncn2)(c2ccc(Cl)cc2Cl)O1 (centres unmarked) [Propiconazole, 1-[[2-(2,4-dichlorophenyl)-4-propyl-1,3-dioxolan-2-yl]methyl]-1H-1,2,4-triazole] | 0% |  | 0% | 0% |  |  | 29% |  | 0% | 2% | B % DC ([2]; 6.3 ppm): 93%; B % DC ([3]; 6.3 ppm): 68% |
| COC(=O)N(OC)c1ccccc1COc1ccn(-c2ccc(Cl)cc2)n1 [Pyraclostrobin, pyraclostrobin] |  |  |  |  |  |  |  |  |  |  | B % DC ([5]; 60 g ai/ha): 85.8% |
| CC(C)(C)C(O)(CCc1ccc(Cl)cc1)Cn1cncn1 (stereo not drawn) [Tebuconazole, α-[2-(4-chlorophenyl)ethyl]-α-(1,1-dimethylethyl)-1H-1,2,4-triazole-1-ethanol] | 0% | 0% | 18% | 82% | 2% | 0% | 34% | 23.0% |  | 87% | B % DC ([5]; 140 g ai/ha): 74.3% |
